The values below come from patent publication US9078871B2, “Estrogen receptor modulators and uses thereof” (SERAGON PHARMACEUTICALS, INC., priority 2010, dated 2015).

Broadly, the IC50 is the midpoint of a concentration-inhibition curve. A high value points to weaker potency.

Where only a bound is given, the exact number is not on record here.

Common to all, as to assay type: cell-based
The target in assay [1] is T1, ER-α (Homo sapiens, UniProt P03372).
T1 construct: endogenous in cells; host or cells: MCF-7
T1 sequence (P03372 1-595): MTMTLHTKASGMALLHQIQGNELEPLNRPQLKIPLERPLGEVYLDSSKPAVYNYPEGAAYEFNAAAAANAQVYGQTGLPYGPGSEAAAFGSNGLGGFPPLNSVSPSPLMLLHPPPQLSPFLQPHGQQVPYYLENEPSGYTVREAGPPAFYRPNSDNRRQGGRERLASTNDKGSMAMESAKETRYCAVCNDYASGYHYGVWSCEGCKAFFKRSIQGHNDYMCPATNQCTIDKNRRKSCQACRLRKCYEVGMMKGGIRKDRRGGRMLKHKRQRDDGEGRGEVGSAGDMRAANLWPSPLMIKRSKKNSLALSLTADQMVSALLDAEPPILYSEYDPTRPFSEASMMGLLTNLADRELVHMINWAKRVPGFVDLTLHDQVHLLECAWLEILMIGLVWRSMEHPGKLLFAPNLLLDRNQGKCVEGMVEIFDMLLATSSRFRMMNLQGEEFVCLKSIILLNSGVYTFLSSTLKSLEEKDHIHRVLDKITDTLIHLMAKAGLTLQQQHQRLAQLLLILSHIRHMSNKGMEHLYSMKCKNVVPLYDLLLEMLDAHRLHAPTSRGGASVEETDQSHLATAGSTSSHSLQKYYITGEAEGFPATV
Kind of assay: ER-α in Cell Western Assay (SP1). The settings on record: MCF-7 cells, SP1 rabbit monoclonal Ab, 4 or 24 hr post compound addition, read-out: ER In-Cell Western Assay (SP1); for Emax: MCF7, Max Response; for DC50: IC50. A digest of the protocol: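 MCF-7 cells in charcoal-stripped FBS medium treated with 11-point semilog dilutions (0.3–0.000003 μM final) for 4 or 24 hr, then fixed and immunostained with SP1 anti-ER antibody. ER signal (800 nm) normalized to DRAQ5 DNA signal (700 nm) and expressed as % of untreated cells.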

Assay [2] has as its target T1, ER-α. The assay can be described thus: ER-α In Cell Western Assay (ER1D5). Particulars: MCF-7 cells, ER1D5 antibody, 4 or 24 hr post compound addition, read-out: ER In-Cell Western Assay (ER1D5); for Emax: MCF7, Max Response; for DC50: IC50. Here is the method: MCF-7 cells were adjusted to a concentration of 200,000 cells per mL in RPMI containing 10% charcoal-stripped FBS and 20 mM HEPES. 16 microliters of the cell suspension (3200 cells) was added to each well of a poly-D-lysine 384 well plate, and the cells were incubated overnight to allow the cells to adhere. The following day an eleven point, serial semilog dilution of each compound was added to the cells in 16 μL at a final concentration ranging from 0.3-0.000003 μM. At 4 or 24 hr post compound addition, the cells were fixed (10% formalin in PBS) for 20 minutes. Cells were permeabalized in PBS 0.1% Triton and blocked with LICOR blocking buffer (50 μl/well, 90′). The wells were then incubated overnight at 4° C. with ER1D5 (Santa Cruz Biotechnology) diluted 1:100 in LICOR blocking buffer/0.1% Tween-20. Wells which were treated with blocking buffer with Tween but no antibody were used as a background control. Wells were washed with 0.1% Tween-20/PBS and then incubated in goat anti-mouse IRDye™ 800CW (LICOR Inc.; 1:1000) and DRAQ5 DNA dye (1:2000 for 2 mM stock) diluted in LICOR blocking buffer containing 0.1% Tween-20 and 0.01% SDS for 60 minutes. Cells were washed (50 μl/well, 5′ each) in 0.1% Tween-20/PBS. Plates were scanned on a LICOR Odyssey infrared imaging system. Integrated intensities in the 800 nm channel and 700 nm channel were measured to determine levels of ER and DNA respectively. Percent ER levels were determined as follows: (Integrated intensity 800 nm sample/integrated intensity 700 nm sample)/(Integrated intensity 800 nm untreated cells/integrated intensity 700 nm untreated cells)×100=% ER levels.

A further assay relates to MCF-7 cells. Kind of assay: Breast Cancer Cell Viability Assay (MCF7 Viability Assay). Particulars: 5 days' compound exposure, CellTiter-Glo; for IC50: Homo sapiens, MCF7, 120 h. The essentials:
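MCF-7 cells, 320 per well in RPMI with 10% FBS and 20 mM HEPES, adhered overnight, then exposed 5 days to an eleven-point semilog dilution (final 0.3–0.000003 μM). CellTiter-Glo luminescence; % viability relative to untreated cells after subtracting cell-free background.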
On the technique in general: ATP-based viability assays read luminescence as a measure of living cells.

For the compound `CC1=C(c2cccc(O)c2)C(c2ccc(OC[C@@H](C)N3CC[C@@H](C)C3)cc2)Oc2ccc(O)cc21` (stereo partly drawn) [Example 10, 3-(3-Hydroxyphenyl)-4-methyl-2-(4-((R)-2-((R)-3-methylpyrrolidin-1-yl)propoxy)phenyl)-2H-chromen-6-ol], on ER-α [1], the Emax is 60 to 85% and the DC50 was not above 1 nM. Further, on ER-α [2], the Emax was less than 40% and the DC50 was not above 1 nM. Moreover, in the assay with MCF-7 cells, the “MCF7 Viability Assay Max Response” value was “+ (+ = a single % value <50%)” and the IC50 is not above 1 nM.

Consider `CC1=C(c2cccc(O)c2)C(c2ccc(OCCN3CC[C@H](C)C3)cc2)Oc2ccc(O)cc21` (stereo partly drawn) [Example 11, 3-(3-Hydroxyphenyl)-4-methyl-2-(4-(2-((S)-3-methylpyrrolidin-1-yl)ethoxy)phenyl)-2H-chromen-6-ol], for which, on ER-α [1], the Emax is 60 to 85% and the DC50 was not above 1 nM. Also, at ER-α [2], the Emax lay within 40 to 65% and the DC50 was not above 1 nM. Further, in the assay on MCF-7 cells, the “MCF7 Viability Assay Max Response” value is “++ (++ = a single % value ≧50%)” and the IC50 is not above 1 nM.

For the compound `CC1=C(c2cccc(O)c2)C(c2ccc(OC[C@H](C)N3CC[C@H](C)C3)cc2)Oc2ccc(O)cc21` (stereo partly drawn) [Example 12, 3-(3-Hydroxyphenyl)-4-methyl-2-(4-((S)-2-((S)-3-methylpyrrolidin-1-yl)propoxy)phenyl)-2H-chromen-6-ol], at ER-α [1], the Emax was 60 to 85% and the DC50 was not above 1 nM. In addition, on ER-α [2], the Emax was 40 to 65% and the DC50 was not above 1 nM. Also, in the assay on MCF-7 cells, the “MCF7 Viability Assay Max Response” value is “++ (++ = a single % value ≧50%)” and the IC50 was not above 1 nM.

For `CC1=C(c2cccc(O)c2)C(c2ccc(OC[C@@H](C)N3CC[C@H](C)C3)cc2)Oc2ccc(O)cc21` (stereo partly drawn) [Example 13, 3-(3-Hydroxyphenyl)-4-methyl-2-(4-((R)-2-((S)-3-methylpyrrolidin-1-yl)propoxy)phenyl)-2H-chromen-6-ol], on ER-α [1], the Emax was less than 60% and the DC50 is not above 1 nM. For the same compound, on ER-α [2], the Emax is less than 40% and the DC50 is not above 1 nM. Besides, in the assay with MCF-7 cells, the “MCF7 Viability Assay Max Response” value was “++ (++ = a single % value ≧50%)” and the IC50 was not above 1 nM.

`CC1=C(c2cccc(O)c2)C(c2ccc(OCCn3cccc3)cc2)Oc2ccc(O)cc21` (stereo not drawn) [Example 14, 3-(3-Hydroxyphenyl)-4-methyl-2-(4-(2-pyrrolylethoxy)phenyl)-2H-chromen-6-ol]: at ER-α [1], the Emax was 60 to 85% and the DC50 is not above 1 nM. For the same compound, at ER-α [2], the Emax lay in the range of 40 to 65% and the DC50 is not above 1 nM. For the same compound, in the assay on MCF-7 cells, the “MCF7 Viability Assay Max Response” value was “+ (+ = a single % value <50%)” and the IC50 was not above 1 nM.

As to `CC1=C(c2cccc(O)c2)C(c2ccc(OC[C@H](C)N3CCCCCC3)cc2)Oc2ccc(O)cc21` (stereo partly drawn) [Example 15, 2-(4-((S)-2-(Azepan-1-yl)propoxy)phenyl)-3-(3-hydroxyphenyl)-4-methyl-2H-chromen-6-ol], at ER-α [1], the Emax was 60 to 85% and the DC50 was not above 1 nM. Moreover, on ER-α [2], the Emax is 40 to 65% and the DC50 is not above 1 nM. In addition, in the assay on MCF-7 cells, the “MCF7 Viability Assay Max Response” value is listed as “++ (++ = a single % value ≧50%)” and the IC50 was not above 1 nM.

On to `CC1=C(c2cccc(O)c2)C(c2ccc(OCCn3ccnc3)cc2)Oc2ccc(O)cc21` (stereo not drawn) [Example 16], for which, on ER-α [1], the Emax is less than 60% and the DC50 is not above 1 nM. For the same compound, at ER-α [2], the Emax was less than 40% and the DC50 was more than 1 nM. In the assay on MCF-7 cells, the “MCF7 Viability Assay Max Response” value was “+ (+ = a single % value <50%)” and the IC50 is not above 1 nM.

With `CC1=C(c2cccc(O)c2)C(c2ccc(OCCN3CCCCCC3)cc2)Oc2ccc(O)cc21` (stereo not drawn) [Example 17, 2-(4-(2-(Azepan-1-yl)ethoxy)phenyl)-3-(3-hydroxyphenyl)-4-methyl-2H-chromen-6-ol], at ER-α [1], the Emax was in the range of 60 to 85% and the DC50 is not above 1 nM. Also, on ER-α [2], the Emax lay in the range of 40 to 65% and the DC50 was not above 1 nM. In the assay on MCF-7 cells, the “MCF7 Viability Assay Max Response” value is listed as “+ (+ = a single % value <50%)” and the IC50 was not above 1 nM.

On to `CC1=C(c2cccc(O)c2)C(c2ccc(OC[C@H](C)N3CCC(C)(C)C3)cc2)Oc2ccc(O)cc21` (stereo partly drawn) [Example 18, 2-(4-((S)-2-(3,3-Dimethylpyrrolidin-1-yl)propoxy)phenyl)-3-(3-hydroxyphenyl)-4-methyl-2H-chromen-6-ol], for which, on ER-α [1], the Emax lay within 60 to 85% and the DC50 is not above 1 nM. Moreover, at ER-α [2], the Emax was not below 65% and the DC50 was not above 1 nM. For the same compound, in the assay on MCF-7 cells, the “MCF7 Viability Assay Max Response” value is “++ (++ = a single % value ≧50%)” and the IC50 is not above 1 nM.

Regarding `CC1=C(c2cccc(O)c2)C(c2ccc(OCCN3CCC(C)(C)C3)cc2)Oc2ccc(O)cc21` (stereo not drawn) [Example 19, 2-(4-(2-(3,3-Dimethylpyrrolidin-1-yl)ethoxy)phenyl)-3-(3-hydroxyphenyl)-4-methyl-2H-chromen-6-ol], on ER-α [1], the Emax was 60 to 85% and the DC50 was not above 1 nM. For the same compound, at ER-α [2], the Emax was not below 65% and the DC50 is not above 1 nM. In the assay with MCF-7 cells, the “MCF7 Viability Assay Max Response” value was “++ (++ = a single % value ≧50%)” and the IC50 is not above 1 nM.

Take `CC1=C(c2cccc(O)c2)C(c2ccc(OCCN3CCC[C@H]3C)cc2)Oc2ccc(O)cc21` (stereo partly drawn) [Example 20, 3-(3-Hydroxyphenyl)-4-methyl-2-(4-(2-((R)-2-methylpyrrolidin-1-yl)ethoxy)phenyl)-2H-chromen-6-ol]: at ER-α [1], the Emax fell in the range of 60 to 85% and the DC50 was not above 1 nM. Moreover, at ER-α [2], the Emax was 40 to 65% and the DC50 was not above 1 nM. For the same compound, in the assay on MCF-7 cells, the “MCF7 Viability Assay Max Response” value is on record as “++ (++ = a single % value ≧50%)” and the IC50 was not above 1 nM.

On to `CC1=C(c2cccc(O)c2)C(c2ccc(OCCN3CCC(C)CC3)cc2)Oc2ccc(O)cc21` (stereo not drawn) [Example 21, 3-(3-Hydroxyphenyl)-4-methyl-2-(4-(2-(4-methylpiperidin-1-yl)ethoxy)phenyl)-2H-chromen-6-ol], for which, at ER-α [1], the Emax was 60 to 85% and the DC50 is not above 1 nM. Besides, on ER-α [2], the Emax was in the range of 40 to 65% and the DC50 was not above 1 nM. In addition, in the assay with MCF-7 cells, the “MCF7 Viability Assay Max Response” value is “++ (++ = a single % value ≧50%)” and the IC50 is not above 1 nM.

As to `CC1=C(c2cccc(O)c2)C(c2ccc(NCCN3CCCC3)cc2)Oc2ccc(O)cc21` (stereo not drawn) [Example 22, 3-(3-Hydroxyphenyl)-4-methyl-2-(4-((2-(pyrrolidin-1-yl)ethyl)amino)phenyl)-2H-chromen-6-ol], at ER-α [1], the Emax was 60 to 85% and the DC50 was not above 1 nM. Besides, at ER-α [2], the Emax is 40 to 65% and the DC50 was more than 1 nM. Further, in the assay with MCF-7 cells, the “MCF7 Viability Assay Max Response” value is “+ (+ = a single % value <50%)” and the IC50 was not above 1 nM.
